What all share (test): NCI anticancer screen, dose series, 48 h
For experiment [1], the system named is UACC-62.
For experiment [2], the system named is PC-3.
The subject of experiment [3] is NCI-H460.
For experiment [4], the system named is OVCAR-8.
For experiment [5], the system named is SF-268.
Experiment [6] has as its system RXF 393.
In experiment [7] the test system is CAKI-1.
Experiment [8] relates to SK-MEL-2.
Experiment [9] concerns BT-549.
Experiment [10] deals with UACC-257.
The test system of experiment [11] is NCI/ADR-RES.
In experiment [12] the test system is K562.
In experiment [13] the test system is HCC 2998.
The subject of experiment [14] is SNB-19.
Experiment [15] deals with OVCAR-5.
Experiment [16] deals with TK-10.
For experiment [17], the system named is HOP-92.
The test system of experiment [18] is HCT-15.
In experiment [19] the test system is A498.
In experiment [20] the test system is SR.

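In this assay, cells in 96-well plates receive the compound at five concentrations for 48 hours. Endpoints are linearly interpolated between the surrounding concentrations. GI50: concentration for 50% inhibition of growth.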 Active and inactive are the calls of the source. Cut-off read from the data, not from the text of the source: active = GI50 up to about 1.1 µM and inactive = higher.

As to `CC[C@@H]1CN2CCC1C[C@@H]2C(O)c1ccnc2ccc(OCCN3CCN(CCOc4ccc5nccc(C(O)[C@@H]6C[C@@H]7CCN6C[C@@H]7CC)c5c4)CC3)cc12` (some centres undefined), the GI50 was 16.1 µM (inactive) in experiment [1]; 15.9 µM (inactive) in [2]; 17.3 µM (inactive) in experiment [3]; 19.3 µM (inactive) in [4]; 18.4 µM (inactive) in experiment [5]; 16.5 µM (inactive) in experiment [6]. Also, the GI50 in experiment [7] was 17.9 µM (inactive); in experiment [8] it was 19.9 µM (inactive); in [9], 19.1 µM (inactive); in [10] it was 16.1 µM (inactive); in experiment [11], > 100 µM (inactive); in experiment [12], 2.63 µM (inactive). In addition, the GI50 is 9.48 µM (inactive) in [13]; 14.5 µM (inactive) in experiment [14]; 18.6 µM (inactive) in [15]; 14.4 µM (inactive) in experiment [16]; 8.81 µM (inactive) in experiment [17]; 24.2 µM in [18]. Further, the GI50 in experiment [19] is 20.2 µM (inactive).
As to `Clc1nc2n(c1/C=C/c1cccs1)CCS2`, the GI50 was 37.3 µM (inactive) in [1]; 40.8 µM (inactive) in experiment [2]; 29.7 µM (inactive) in [4]; 40.4 µM (inactive) in experiment [5]; 40.8 µM (inactive) in experiment [6]; 18.8 µM (inactive) in experiment [7]. The GI50 in experiment [8] is > 100 µM (inactive); in experiment [9] it was 26.6 µM (inactive); in experiment [10], 57.5 µM (inactive); in experiment [11], 29.6 µM (inactive); in experiment [12], 47.2 µM (inactive); in experiment [13] it was 35.5 µM (inactive). Moreover, the GI50 in experiment [14] is 43.6 µM (inactive); in [15], 27.3 µM (inactive); in experiment [16] it was 36 µM (inactive); in experiment [18], 37 µM; in [19], 20 µM (inactive).
Consider `CN1C(=S)C(c2ccccc2)Sc2ccccc21` (centres undefined), for which the GI50 is > 100 µM (inactive) in experiment [1]; 17.6 µM (inactive) in experiment [2]; 27.8 µM (inactive) in [3]; 43.3 µM (inactive) in experiment [4]; > 100 µM (inactive) in experiment [5]; 50.2 µM (inactive) in [6]. The GI50 in experiment [7] was > 100 µM (inactive); in experiment [9], 42.7 µM (inactive); in experiment [10], 30.8 µM (inactive); in experiment [11] it was > 100 µM (inactive); in [12], 20.7 µM (inactive); in experiment [14], > 100 µM (inactive). Besides, the GI50 in experiment [15] is 82 µM (inactive); in [16], 85.9 µM (inactive); in experiment [18] it was 52.1 µM; in [20] it was 64.4 µM (inactive).
Take `CCOP(=O)(Nc1ccc(-c2ccc(N)cc2)cc1)OCC`: the GI50 in experiment [1] is > 100 µM (inactive); in experiment [2], > 100 µM (inactive); in experiment [3] it was > 100 µM (inactive); in experiment [4], > 100 µM (inactive); in experiment [5], > 100 µM (inactive); in [6], 35.2 µM (inactive). Besides, the GI50 in experiment [7], in [8], in [9], in experiment [10], in [11] and in [12] was > 100 µM (inactive) throughout. The GI50 in experiment [13] is > 100 µM (inactive); in experiment [14], 94.8 µM (inactive); in experiment [15], 51.6 µM (inactive); in experiment [16], > 100 µM (inactive); in experiment [17], > 100 µM (inactive); in [18] it was greater than 100 µM. The GI50 in experiment [19] is > 100 µM (inactive).
Turning to `Cc1ccc(/C=N/Nc2cnccn2)s1`, the GI50 in experiment [1], in [2], in experiment [4], in [5], in experiment [6] and in experiment [7] was > 100 µM (inactive) each time. Also, the GI50 is > 100 µM (inactive) in experiment [8]; > 100 µM (inactive) in [9]; > 100 µM (inactive) in [10]; > 100 µM (inactive) in experiment [11]; 65.2 µM (inactive) in experiment [12]; > 100 µM (inactive) in experiment [13]. Moreover, the GI50 in experiment [14] was > 100 µM (inactive); in experiment [15], > 100 µM (inactive); in [16], > 100 µM (inactive); in experiment [17], > 100 µM (inactive); in experiment [18], greater than 100 µM.
In the case of `O=C(O)CCSc1ncnc2[nH]cnc12`, the GI50 in [1], in experiment [2], in experiment [3], in experiment [4], in experiment [5] and in experiment [6] was > 100 µM (inactive) in each case. The GI50 in experiment [7], in experiment [8], in [9], in [10], in experiment [11] and in experiment [12] was > 100 µM (inactive) each time. Also, the GI50 in [13] was > 100 µM (inactive); in [14], > 100 µM (inactive); in experiment [15], > 100 µM (inactive); in experiment [16] it was > 100 µM (inactive); in experiment [17], 27.1 µM (inactive); in [18], greater than 100 µM. Further, in experiment [19], the GI50 was > 100 µM (inactive).
For `COc1ccc(N2C(=O)CC(Cl)C2=O)cc1` (centres undefined), the GI50 in experiment [1] was 20.2 µM (inactive); in [2], 52.2 µM (inactive); in [3] it was > 100 µM (inactive); in experiment [4] it was 16.6 µM (inactive); in experiment [5], > 100 µM (inactive); in [6] it was 20 µM (inactive). Moreover, the GI50 is > 100 µM (inactive) in [8]; > 100 µM (inactive) in experiment [9]; 16.1 µM (inactive) in experiment [10]; 32.4 µM (inactive) in [11]; 6.05 µM (inactive) in [12]; 20.4 µM (inactive) in experiment [13]. The GI50 in [14] was > 100 µM (inactive); in experiment [15] it was 18.2 µM (inactive); in experiment [16], 18.8 µM (inactive); in [17] it was 27.5 µM (inactive); in [18], 17.5 µM; in experiment [19] it was > 100 µM (inactive).
Take `O=C(O)[C@@]1(Cc2ccc(O)cc2)C[C@@H]2Cc3ccccc3N2N1`: the GI50 in experiment [1], in [2], in experiment [4], in [5], in experiment [7] and in experiment [8] was > 100 µM (inactive) in each case. Further, the GI50 in experiment [9], in [10], in experiment [11], in experiment [14], in [15] and in experiment [16] was > 100 µM (inactive) in each case. Besides, the GI50 is > 100 µM (inactive) in experiment [17], greater than 100 µM in experiment [18], > 100 µM (inactive) in [20] and > 100 µM (inactive) in [19].
With `O=[N+]([O-])C(=C1NCCN1)/C(Cl)=C(/Cl)N1CCOCC1`, the GI50 in experiment [1], in experiment [2], in experiment [3], in [4], in experiment [5] and in [7] was > 100 µM (inactive) each time. Also, the GI50 in experiment [8], in experiment [9], in [10], in experiment [11], in experiment [12] and in [13] was > 100 µM (inactive) in each case. Also, the GI50 is > 100 µM (inactive) in [14], > 100 µM (inactive) in [15], greater than 100 µM in experiment [18] and > 100 µM (inactive) in experiment [19].
Turning to `CC1(C)CC(=O)C(CCC(=O)/C=C/c2ccccc2)C(=O)C1`, the GI50 in experiment [1] was > 100 µM (inactive); in experiment [2] it was > 100 µM (inactive); in [3] it was > 100 µM (inactive); in [4], > 100 µM (inactive); in [5] it was > 100 µM (inactive); in [6], > 95.3 µM (inactive). Moreover, the GI50 in [7], in experiment [8], in experiment [9], in experiment [10], in experiment [11] and in [12] was > 100 µM (inactive) in each case. The GI50 in experiment [13] was > 100 µM (inactive); in experiment [14] it was > 76.4 µM (inactive); in experiment [15] it was > 100 µM (inactive); in [16] it was > 100 µM (inactive); in experiment [17] it was > 89.3 µM (inactive); in [18], greater than 100 µM. Also, the GI50 in [19] was > 100 µM (inactive).
For `Cc1ccc(S(=O)(=O)OC2=C/C(=N\c3onc(C)c3C)c3ccccc3C2=O)cc1`, the GI50 is 20.6 µM (inactive) in experiment [1]; 20.6 µM (inactive) in experiment [2]; 32.8 µM (inactive) in [3]; 18.3 µM (inactive) in [4]; 23.7 µM (inactive) in experiment [5]; 20 µM (inactive) in experiment [7]. Moreover, the GI50 is 12.9 µM (inactive) in experiment [8]; 33.7 µM (inactive) in experiment [9]; 15.2 µM (inactive) in [10]; 25.2 µM (inactive) in experiment [11]; 4.41 µM (inactive) in [12]; 26.7 µM (inactive) in experiment [14]. Moreover, the GI50 is 20.3 µM (inactive) in [15]; 36.6 µM (inactive) in experiment [16]; 18.8 µM (inactive) in experiment [17]; 29 µM in experiment [18]; 3.01 µM (inactive) in experiment [20]; > 100 µM (inactive) in [19].

Source of the values: ChEMBL document CHEMBL1201862, “PubChem BioAssay data set” (2004).
